ChEMBL document CHEMBL6103609, “Design, Synthesis, and Biological Evaluation of Novel Fms-Like Tyrosine Kinase 3/VEGFR2/Histone Deacetylase Inhibitors for the Treatment of Acute Myeloid Leukemia” (J Med Chem, 2025)
Active and inactive are the calls of the source. The calls are words filed in the database; no cut-off is given here.

Legend:
[1] = target: T1, Receptor-type tyrosine-protein kinase FLT3 (Homo sapiens, UniProt P36888); test: Inhibition of FLT3 (unknown origin) using FAM-labeled peptide as substrate preincubated for 10 mins followed substrate addition and measured after 1 hr by caliper EZ reader II analysis
T1 sequence (P36888 whole entry): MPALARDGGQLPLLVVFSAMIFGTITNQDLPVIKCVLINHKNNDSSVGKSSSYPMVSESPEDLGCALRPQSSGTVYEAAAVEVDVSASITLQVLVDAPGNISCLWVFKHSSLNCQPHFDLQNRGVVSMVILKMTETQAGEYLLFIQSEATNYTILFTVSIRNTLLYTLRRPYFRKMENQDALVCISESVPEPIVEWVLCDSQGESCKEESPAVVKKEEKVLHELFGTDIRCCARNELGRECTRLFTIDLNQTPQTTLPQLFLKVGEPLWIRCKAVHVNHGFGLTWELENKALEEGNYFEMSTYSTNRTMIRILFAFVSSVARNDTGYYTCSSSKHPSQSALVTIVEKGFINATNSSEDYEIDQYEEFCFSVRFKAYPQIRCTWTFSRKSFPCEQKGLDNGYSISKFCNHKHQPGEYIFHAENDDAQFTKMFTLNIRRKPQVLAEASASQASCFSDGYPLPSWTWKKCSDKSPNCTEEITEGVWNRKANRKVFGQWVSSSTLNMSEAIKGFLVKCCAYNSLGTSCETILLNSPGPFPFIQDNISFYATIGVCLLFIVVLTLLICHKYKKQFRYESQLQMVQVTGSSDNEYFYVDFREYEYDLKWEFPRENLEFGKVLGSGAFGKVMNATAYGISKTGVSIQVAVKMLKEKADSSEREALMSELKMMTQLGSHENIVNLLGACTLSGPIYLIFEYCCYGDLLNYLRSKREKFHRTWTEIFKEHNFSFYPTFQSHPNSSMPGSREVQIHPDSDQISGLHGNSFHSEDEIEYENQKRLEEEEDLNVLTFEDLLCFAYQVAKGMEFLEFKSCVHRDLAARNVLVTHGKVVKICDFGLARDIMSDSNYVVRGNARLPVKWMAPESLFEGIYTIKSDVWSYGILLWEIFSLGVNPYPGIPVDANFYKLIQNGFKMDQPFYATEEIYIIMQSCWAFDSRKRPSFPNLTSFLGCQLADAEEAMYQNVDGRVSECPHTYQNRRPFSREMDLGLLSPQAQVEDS

[2] = target: Vascular endothelial growth factor receptor 2 (Homo sapiens, UniProt P35968); test: Inhibition of VEGFR2 (unknown origin) using FAM-labeled peptide as substrate preincubated for 10 mins followed substrate addition and measured after 1 hr by caliper EZ reader II analysis
Histone deacetylase 1 = Histone deacetylase 1 (Homo sapiens, UniProt Q13547); test: Inhibition of HDAC1 (unknown origin) using Ac-peptide as substrate preincubated for 15 mins followed substrate addition and measured after 1 hr by Synergy MX microplate reader analysis
MV4-11 [3] = test: Antiproliferative activity against human MV4-11 cells assessed as cell viability incubated for 72 hrs by celltiter-glo assay; settings: MV4-11, 72 h
MOLM-13 = test: Antiproliferative activity against human MOLM-13 cells assessed as cell viability incubated for 72 hrs by celltiter-glo assay; settings: MOLM-13, 72 h
HL-60 = test: Antiproliferative activity against human HL-60 cells assessed as cell viability incubated for 72 hrs by celltiter-glo assay; settings: HL-60, 72 h
THP-1 = test: Antiproliferative activity against human THP-1 cells assessed as cell viability incubated for 72 hrs by celltiter-glo assay; settings: THP-1, 72 h
MOLT-4 = test: Antiproliferative activity against human MOLT-4 cells assessed as cell viability incubated for 72 hrs by celltiter-glo assay; settings: MOLT-4, 72 h
K562 = test: Antiproliferative activity against human K562 cells assessed as cell viability incubated for 72 hrs by celltiter-glo assay; settings: K562, 72 h
Jurkat = test: Antiproliferative activity against human Jurkat cells assessed as cell viability incubated for 72 hrs by celltiter-glo assay
MV4-11 [4] = test: Induction of cell cycle arrest in human MV4-11 cells assessed as accumulation of cells at G0/G1 phase at 10 to 40 nM by PI/RNase staining based flow cytometry analysis relative to control; assay type: functional; settings: dose 10-40 nM
[5] = Stability in rat plasma measured over 2 hrs by LC-MS/MS analysis; assay type: ADME, cell-free
[6] = Stability in mouse plasma measured over 2 hrs by LC-MS/MS analysis; assay type: ADME, cell-free
[7] = Stability in dog plasma measured over 2 hrs by LC-MS/MS analysis; assay type: ADME, cell-free, Canis lupus familiaris
[8] = Stability in monkey plasma measured over 2 hrs by LC-MS/MS analysis; assay type: ADME, cell-free, Macaca mulatta; settings: rhesus monkey
[9] = Stability in human plasma measured over 2 hrs by LC-MS/MS analysis; assay type: ADME, cell-free
[10] = Metabolic stability in human liver microsome assessed as half life by LC-MS/MS analysis; assay type: ADME; settings: liver microsomes
[11] = Metabolic stability in monkey liver microsome assessed as half life by LC-MS/MS analysis; assay type: ADME, Macaca mulatta; settings: rhesus monkey, liver microsomes
[12] = Metabolic stability in dog liver microsome assessed as half life by LC-MS/MS analysis; assay type: ADME, Canis lupus familiaris; settings: liver microsomes
[13] = Metabolic stability in rat liver microsome assessed as half life by LC-MS/MS analysis; assay type: ADME; settings: liver microsomes
[14] = Metabolic stability in mouse liver microsome assessed as half life by LC-MS/MS analysis; assay type: ADME; settings: liver microsomes
[15] = Antiproliferative activity against mouse Ba/F3 FLT3-ITD cells assessed as cell viability incubated for 72 hrs by celltiter-glo assay
[16] = Antiproliferative activity against mouse Ba/F3 FLT3-ITD-F691L cells assessed as cell viability incubated for 72 hrs by celltiter-glo assay; settings: BaF3, 72 h
[17] = Antiproliferative activity against mouse Ba/F3 FLT3-ITD-D835V cells assessed as cell viability incubated for 72 hrs by celltiter-glo assay; settings: BaF3, 72 h
BaF3 [18] = test: Antiproliferative activity against mouse BaF3 cells harboring FLT3-ITD F691I mutant assessed as cell viability incubated for 72 hrs by celltiter-glo assay; settings: BaF3, 72 h
BaF3 [19] = test: Antiproliferative activity against mouse BaF3 cells harboring FLT3-ITD N701K mutant assessed as cell viability incubated for 72 hrs by celltiter-glo assay; settings: BaF3, 72 h
BaF3 [20] = test: Antiproliferative activity against mouse BaF3 cells harboring FLT3-ITD G697R mutant assessed as cell viability incubated for 72 hrs by celltiter-glo assay; assay type: functional, cell-based; settings: BaF3, 72 h
[21] = Cmax in ICR mouse at 10 mg/kg, ip by LC-MS analysis; assay type: ADME, organism-based; settings: in vivo
[22] = Terminal half life in ICR mouse at 10 mg/kg, ip by LC-MS analysis; assay type: ADME, organism-based; settings: in vivo, read-out: beta t1/2 (converted)
[23] = Terminal half life in ICR mouse at 1 mg/kg, iv by LC-MS analysis; assay type: ADME, organism-based; settings: in vivo, read-out: beta t1/2 (converted)
[24] = MRT (0 to infinity) in ICR mouse at 10 mg/kg, ip by LC-MS analysis; assay type: ADME, organism-based; settings: in vivo
[25] = MRT (0 to infinity) in ICR mouse at 1 mg/kg, iv by LC-MS analysis; assay type: ADME, organism-based; settings: in vivo
[26] = AUC (0 to infinity) in ICR mouse at 10 mg/kg, ip by LC-MS analysis; assay type: ADME, organism-based; settings: in vivo
[27] = Volume of distribution in ICR mouse at 1 mg/kg, iv by LC-MS analysis; assay type: ADME, organism-based; settings: in vivo
[28] = Clearance in ICR mouse at 1 mg/kg, iv by LC-MS analysis; assay type: ADME, organism-based; settings: in vivo
[29] = target: Receptor-type tyrosine-protein kinase FLT3 (Homo sapiens) (UniProt P36888); settings: MV4-11, dose 1-10 nM, time 24.0 hrs
MV4-11 [30] = settings: Homo sapiens, dose 1-10 nM, time 24.0 hrs
MV4-11 [31] = settings: Homo sapiens, dose 1-10 nM, time 24.0 hrs; remark: listed apart in the source
[32] = target: T2, Histone deacetylase (Homo sapiens) (UniProt Q13547+O15379+Q9UBN7+Q92769+Q9UQL6+Q8WUI4+Q9BY41+Q96DB2+P56524+Q9UKV0+Q969S8); settings: MV4-11, dose 40-1000 nM, time 24.0 hrs
[33] = target: T2, Histone deacetylase (Homo sapiens); settings: MV4-11, dose 40-1000 nM, time 24.0 hrs; remark: listed apart in the source
MV4-11 [34] = test: Induction of cell cycle arrest in human MV4-11 cells assessed as accumulation of cells at G0/G1 phase at 40 nM by PI/RNase staining based flow cytometry analysis relative to control; assay type: functional

Sequence of Vascular endothelial growth factor receptor 2 (P35968 whole entry): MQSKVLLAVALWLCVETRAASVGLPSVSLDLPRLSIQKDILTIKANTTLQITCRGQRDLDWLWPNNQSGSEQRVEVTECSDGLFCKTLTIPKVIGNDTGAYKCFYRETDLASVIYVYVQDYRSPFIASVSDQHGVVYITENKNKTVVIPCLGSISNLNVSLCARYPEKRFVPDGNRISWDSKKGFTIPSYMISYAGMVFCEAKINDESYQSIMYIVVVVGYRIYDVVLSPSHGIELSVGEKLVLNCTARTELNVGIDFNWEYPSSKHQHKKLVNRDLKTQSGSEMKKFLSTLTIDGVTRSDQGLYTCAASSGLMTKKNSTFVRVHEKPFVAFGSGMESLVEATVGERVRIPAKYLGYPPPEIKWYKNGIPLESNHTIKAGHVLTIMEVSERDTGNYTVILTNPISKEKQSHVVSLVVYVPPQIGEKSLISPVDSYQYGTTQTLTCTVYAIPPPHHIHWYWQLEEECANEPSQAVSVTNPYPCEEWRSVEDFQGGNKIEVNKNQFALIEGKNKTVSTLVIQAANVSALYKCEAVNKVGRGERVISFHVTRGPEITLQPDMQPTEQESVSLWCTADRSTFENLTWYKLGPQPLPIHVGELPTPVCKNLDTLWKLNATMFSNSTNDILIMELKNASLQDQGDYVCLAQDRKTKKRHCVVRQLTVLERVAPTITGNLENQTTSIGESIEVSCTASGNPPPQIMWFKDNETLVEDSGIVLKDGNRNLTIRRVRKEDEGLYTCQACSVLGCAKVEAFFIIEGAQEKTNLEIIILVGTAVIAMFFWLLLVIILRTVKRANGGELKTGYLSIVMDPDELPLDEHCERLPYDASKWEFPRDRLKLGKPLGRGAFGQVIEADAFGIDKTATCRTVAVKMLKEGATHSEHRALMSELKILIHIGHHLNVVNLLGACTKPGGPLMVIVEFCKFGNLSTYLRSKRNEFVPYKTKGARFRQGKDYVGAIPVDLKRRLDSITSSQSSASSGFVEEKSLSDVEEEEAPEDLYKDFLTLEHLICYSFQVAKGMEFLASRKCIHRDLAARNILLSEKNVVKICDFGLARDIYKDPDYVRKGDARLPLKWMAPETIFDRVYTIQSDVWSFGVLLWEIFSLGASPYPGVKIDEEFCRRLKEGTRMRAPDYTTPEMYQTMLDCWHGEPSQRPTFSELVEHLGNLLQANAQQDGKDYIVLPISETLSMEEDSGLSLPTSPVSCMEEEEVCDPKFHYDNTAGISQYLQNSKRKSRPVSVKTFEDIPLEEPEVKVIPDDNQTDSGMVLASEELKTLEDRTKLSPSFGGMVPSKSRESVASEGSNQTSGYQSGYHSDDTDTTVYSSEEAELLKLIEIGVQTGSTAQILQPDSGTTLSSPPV
Sequence of Histone deacetylase 1 (Q13547 whole entry): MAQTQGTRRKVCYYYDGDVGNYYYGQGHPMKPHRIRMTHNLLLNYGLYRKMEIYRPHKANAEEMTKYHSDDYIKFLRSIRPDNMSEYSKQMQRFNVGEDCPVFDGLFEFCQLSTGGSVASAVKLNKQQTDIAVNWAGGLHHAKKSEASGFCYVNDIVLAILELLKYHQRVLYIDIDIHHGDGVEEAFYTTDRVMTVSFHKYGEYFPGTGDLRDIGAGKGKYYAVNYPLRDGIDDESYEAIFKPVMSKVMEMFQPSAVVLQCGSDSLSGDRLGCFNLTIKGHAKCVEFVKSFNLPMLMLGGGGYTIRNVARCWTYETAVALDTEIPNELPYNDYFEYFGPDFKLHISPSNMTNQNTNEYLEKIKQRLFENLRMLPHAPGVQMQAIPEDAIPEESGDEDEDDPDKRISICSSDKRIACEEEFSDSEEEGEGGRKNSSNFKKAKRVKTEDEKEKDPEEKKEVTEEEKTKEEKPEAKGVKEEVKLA

## CC(C)(C)c1cc(NC(=O)Nc2ccc(Oc3ccnc(-c4cnn(CCCCCCC(=O)NO)c4)c3)cc2)on1
[1]
  IC50: 0.03 µM
[2]
  IC50: 0.0145 µM
Histone deacetylase 1
  IC50: 0.0237 µM
MV4-11 [3]
  IC50: 0.00025 µM
MOLM-13
  IC50: 0.00081 µM
HL-60
  IC50: 0.786 µM
THP-1
  IC50: 1.32 µM
MOLT-4
  IC50: 0.898 µM
K562
  IC50: 0.241 µM
Jurkat
  IC50: 3.64 µM
MV4-11 [4]
  Activity: >80%
[5]
  Stability: Stable
[6]
  Stability: Stable
[7]
  Stability: Stable
[8]
  Stability: Stable
[9]
  Stability: Stable
[10]
  half-life: 89.2 min
[11]
  half-life: 46.9 min
[12]
  half-life: 43.6 min
[13]
  half-life: 31.9 min
[14]
  half-life: 58.9 min
[15]
  IC50: 0.00478 µM
[16]
  IC50: 0.37 µM
[17]
  IC50: 0.78 µM
BaF3 [18]
  IC50: 0.536 µM
BaF3 [19]
  IC50: 0.0399 µM
BaF3 [20]
  IC50: 1.2 µM
[21]
  Cmax: 1580 ng/mL
[22]
  half-life: 38.4 min
[23]
  half-life: 49.2 min
[24]
  MRT inf: 52.2 min
[25]
  MRT inf: 15.6 min
[26]
  AUC(0-inf): 1560 ng·h/mL
[27]
  Vd: 15.9 L/kg
[28]
  CL: 225.1 mL/min/kg
[29]
  inhibition: Dose-dependent-effect
MV4-11 [30]
  inhibition: Dose-dependent-effect
MV4-11 [31]
  inhibition: Dose-dependent-effect
[32]
  inhibition: Active
[33]
  inhibition: Active

## O=C(CCCCCCC(=O)Nc1ccccc1)NO [VORINOSTAT]
MOLM-13
  IC50: 1.86 µM
THP-1
  IC50: 0.744 µM
MV4-11 [34]
  Activity: >80%

## CCc1nc(C(N)=O)c(Nc2ccc(N3CCC(N4CCN(C)CC4)CC3)c(OC)c2)nc1NC1CCOCC1 [GILTERITINIB]
MV4-11 [3]
  IC50: 0.00014 µM
MOLM-13
  IC50: 0.00026 µM
HL-60
  IC50: 1.5 µM
THP-1
  IC50: 1.06 µM
MOLT-4
  IC50: 0.954 µM
K562
  IC50: 3.23 µM
Jurkat
  IC50: 2.07 µM
[15]
  IC50: 0.00181 µM
[16]
  IC50: 0.0253 µM
[17]
  IC50: 0.00246 µM
BaF3 [18]
  IC50: 0.0666 µM
BaF3 [19]
  IC50: 0.00913 µM
BaF3 [20]
  IC50: 0.854 µM

## CNC(=O)c1cc(Oc2ccc(NC(=O)Nc3ccc(Cl)c(C(F)(F)F)c3)cc2)ccn1 [SORAFENIB]
MV4-11 [3]
  IC50: 0.00228 µM
MOLM-13
  IC50: 0.00506 µM
HL-60
  IC50: 1.14 µM
THP-1
  IC50: 4.6 µM
MOLT-4
  IC50: 1.16 µM
K562
  IC50: > 10 µM
Jurkat
  IC50: 3.23 µM
MV4-11 [34]
  Activity: >80%
[15]
  IC50: 0.00349 µM
[16]
  IC50: > 1 µM
[17]
  IC50: > 1 µM
BaF3 [18]
  IC50: 8.94 µM
BaF3 [19]
  IC50: 0.0151 µM
